The target in this experiment is T1, 4,6-αGT-ML4 (Limosilactobacillus reuteri, UniProt Q5SBN1).
T1 construct: full-length 180 kDa
The experiment can be described thus: 1H NMR / TLC / HPAEC of product mixture. The experiment is classed as biochemical. Particulars: sodium acetate 25 mM pH 4.7, 1 mM CaCl2, 37 °C, 40 h, 25 μg/ml enzyme.

Molecules are shown by their SMILES.

T1 sequence (Q5SBN1 entry or part of it): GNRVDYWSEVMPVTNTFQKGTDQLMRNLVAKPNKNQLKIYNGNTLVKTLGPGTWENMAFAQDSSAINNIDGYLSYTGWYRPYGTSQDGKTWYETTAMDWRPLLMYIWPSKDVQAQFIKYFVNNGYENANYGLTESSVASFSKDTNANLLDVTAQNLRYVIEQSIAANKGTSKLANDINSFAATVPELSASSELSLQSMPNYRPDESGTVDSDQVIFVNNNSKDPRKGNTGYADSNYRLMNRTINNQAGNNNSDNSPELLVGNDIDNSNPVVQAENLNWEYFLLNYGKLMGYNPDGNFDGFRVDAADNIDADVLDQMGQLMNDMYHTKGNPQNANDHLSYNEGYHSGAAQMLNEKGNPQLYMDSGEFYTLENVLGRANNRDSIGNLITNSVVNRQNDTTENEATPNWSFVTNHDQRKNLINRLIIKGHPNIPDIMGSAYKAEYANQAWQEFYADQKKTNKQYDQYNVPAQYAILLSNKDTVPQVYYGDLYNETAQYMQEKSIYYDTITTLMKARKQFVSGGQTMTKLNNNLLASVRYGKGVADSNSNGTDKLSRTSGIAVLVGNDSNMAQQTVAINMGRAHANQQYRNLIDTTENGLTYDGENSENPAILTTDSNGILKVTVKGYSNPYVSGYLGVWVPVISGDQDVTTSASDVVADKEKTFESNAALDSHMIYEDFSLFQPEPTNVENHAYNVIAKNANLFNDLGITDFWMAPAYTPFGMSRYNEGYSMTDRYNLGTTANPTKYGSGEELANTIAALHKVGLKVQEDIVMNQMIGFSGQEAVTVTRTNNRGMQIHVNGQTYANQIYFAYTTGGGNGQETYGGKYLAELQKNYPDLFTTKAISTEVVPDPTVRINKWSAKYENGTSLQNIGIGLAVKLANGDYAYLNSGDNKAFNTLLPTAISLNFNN

In the case of `OC[C@H]1O[C@H](O[C@H]2[C@H](O)[C@@H](O)[C@@H](O[C@H]3[C@H](O)[C@@H](O)[C@@H](O[C@H]4[C@H](O)[C@@H](O)[C@@H](O[C@H]5[C@H](O)[C@@H](O)[C@@H](O[C@H]6[C@H](O)[C@@H](O)C(O)O[C@@H]6CO)O[C@@H]5CO)O[C@@H]4CO)O[C@@H]3CO)O[C@@H]2CO)[C@H](O)[C@@H](O)[C@@H]1O` (stereo partly shown) [DP6, maltohexaose], the “1H NMR / TLC / HPAEC of product mixture” value is reported as “generated from maltohexaose, showing a linkage ratio”.

The values are drawn from publication PMC3536977, “4,6-α-Glucanotransferase activity occurs more widespread in Lactobacillus strains and constitutes a separate GH70 subfamily” (Applied Microbiology and Biotechnology, 2012).
